Results from US6686366B1, “Compounds specific to adenosine A3 receptor and uses thereof” (OSI Pharmaceuticals, Inc., priority 1998, dated 2004).
Like-named read-outs stand apart in the source and are kept apart here.

Columns and labels:
[1] = target: T1, human A2a receptor subtype (Homo sapiens, UniProt P29274); assay: Adenosine 2a receptor subtype competition radioligand binding, [3H]CGS-21680, HEK293 membranes; settings: Table 13; concentration not given
T1 construct: expressed in transfected cells; host or cells: HEK-293 (Cadus clone #5), membranes
T1 sequence (P29274 whole entry): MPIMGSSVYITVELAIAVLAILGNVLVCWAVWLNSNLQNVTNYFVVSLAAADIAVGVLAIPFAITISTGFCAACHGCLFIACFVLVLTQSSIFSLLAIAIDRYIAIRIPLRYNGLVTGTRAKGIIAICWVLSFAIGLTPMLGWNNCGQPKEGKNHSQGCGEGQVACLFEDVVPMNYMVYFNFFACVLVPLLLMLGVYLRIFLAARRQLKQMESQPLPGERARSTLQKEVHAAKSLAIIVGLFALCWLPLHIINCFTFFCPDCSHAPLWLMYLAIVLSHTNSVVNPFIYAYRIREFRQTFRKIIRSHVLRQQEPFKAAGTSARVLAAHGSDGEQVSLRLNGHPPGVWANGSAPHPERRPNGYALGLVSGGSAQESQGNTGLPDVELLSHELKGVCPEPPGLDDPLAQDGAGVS

[2] = target: T2, human A1 receptor subtype (Homo sapiens, UniProt P30542); assay: biochemical
T2 sequence (P30542 1-326): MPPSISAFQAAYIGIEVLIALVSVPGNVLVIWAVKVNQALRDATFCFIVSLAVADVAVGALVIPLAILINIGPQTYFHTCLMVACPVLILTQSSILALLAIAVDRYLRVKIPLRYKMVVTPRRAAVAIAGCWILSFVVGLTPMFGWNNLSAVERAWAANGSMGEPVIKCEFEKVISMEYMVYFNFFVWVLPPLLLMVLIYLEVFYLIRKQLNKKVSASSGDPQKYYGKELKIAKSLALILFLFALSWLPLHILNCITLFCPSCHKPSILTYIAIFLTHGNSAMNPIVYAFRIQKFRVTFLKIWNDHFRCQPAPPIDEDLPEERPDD

[3] = target: T3, human adenosine A1 receptor (Homo sapiens, UniProt P30542); assay: Yeast β-Galactosidase reporter gene assay, inhibition of NECA-induced activity, strain CY12660
T3 sequence (P30542 1-326): T2 sequence (P30542 1-326)

[4] = target: T2, human A1 receptor subtype; settings: Table 13; concentration not given
[5] = target: A1 adenosine receptor (Homo sapiens, UniProt P30542); settings: cited from earlier work
[6] = target: T4, human A1 adenosine receptor (Homo sapiens, UniProt P30542); assay: Displacement binding of [3H]CPX, yeast membranes expressing hA1R
T4 sequence (P30542 1-326): T2 sequence (P30542 1-326)

[7] = target: T5, human A3 receptor (Homo sapiens, UniProt P0DMS8); assay: Displacement binding of [3H]CPX, yeast membranes expressing hA3R
T5 sequence (P0DMS8 1-318): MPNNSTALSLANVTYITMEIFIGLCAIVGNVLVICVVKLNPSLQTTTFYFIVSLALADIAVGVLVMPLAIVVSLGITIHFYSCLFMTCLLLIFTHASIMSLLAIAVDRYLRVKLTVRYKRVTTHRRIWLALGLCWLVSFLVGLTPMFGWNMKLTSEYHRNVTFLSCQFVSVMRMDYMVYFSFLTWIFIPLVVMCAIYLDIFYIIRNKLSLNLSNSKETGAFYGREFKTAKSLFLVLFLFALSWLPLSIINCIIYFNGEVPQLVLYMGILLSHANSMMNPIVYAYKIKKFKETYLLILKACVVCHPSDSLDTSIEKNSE

[8] = target: T6, human A2b receptor subtype (Homo sapiens, UniProt P29275); assay: Adenosine 2b receptor subtype competition radioligand binding, [3H]DPCPX, HEK293 membranes; settings: Table 13
T6 construct: expressed in transfected cells; host or cells: HEK293, membranes
T6 sequence (P29275 1-332): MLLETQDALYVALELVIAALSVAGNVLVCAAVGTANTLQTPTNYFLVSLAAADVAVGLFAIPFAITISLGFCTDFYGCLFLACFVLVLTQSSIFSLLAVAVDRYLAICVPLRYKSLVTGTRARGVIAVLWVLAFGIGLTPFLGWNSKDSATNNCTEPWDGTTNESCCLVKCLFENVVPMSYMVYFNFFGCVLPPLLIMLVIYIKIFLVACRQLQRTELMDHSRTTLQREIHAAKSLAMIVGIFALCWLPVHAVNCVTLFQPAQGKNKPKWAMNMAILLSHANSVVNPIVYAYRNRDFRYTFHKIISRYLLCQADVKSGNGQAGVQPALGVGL

[9] = target: T7, human A3 receptor subtype (Homo sapiens, UniProt P0DMS8); assay: Adenosine 3 receptor competition radioligand binding, [125I]AB-MECA, HEK293 membranes
T7 sequence (P0DMS8 1-318): T5 sequence (P0DMS8 1-318)

[10] = A1 Binding Ki (nM), Table 10, Effect of N6-Substituent
[11] = A1 Yeast IC50 (nM), Table 10, Effect of N6-Substituent
[12] = A1 Yeast IC50 (nM), Table 6, Effect of N6-Substituent
[13] = A1 Binding Ki (nM), Table 6, Effect of N6-Substituent

Structure (SMILES)	Ki [2, 10] [nM]	IC50 [3, 11] [nM]	further results
CNC(=O)NCCCNc1nc(-c2ccccc2)nc2[nH]c(C)c(C)c12 [Compound 1310]	–	–	Binding A2a, value given in % [1]: 76%
CC(=O)OCCNc1nc(-c2ccccc2)nc2[nH]c(C)c(C)c12 [Compound 1011]	122	2070	–
Cc1c(C)n(C(C)c2ccccc2)c2nc(-c3ccccc3)nc(NCC(C)C)c12 (stereo not shown) [Compound 903]	–	–	Ki ([2]; A1 Binding Bi (nM), Table 9): 35.3 nM
Cc1c(C)n(C)c2nc(-c3ccccc3)nc(N[C@H]3CC[C@H](O)CC3)c12 [Compound 800]	–	–	Ki [2]: 3310 nM; IC50 [3]: > 10000 nM
Cc1[nH]c2nc(C3CCCC3)nc(N[C@H]3CC[C@H](O)CC3)c2c1C [Compound 703]	–	–	Ki ([2]; A1 Binding Ki (nM), Table 7, Effect of C2-Substituent): 444 nM; IC50 ([3]; A1 Yeast IC50 (nM), Table 7, Effect of C2-Substituent): > 10000 nM
Cc1[nH]c2nc(-c3ccccc3)nc(NC3CCC(OC(=O)c4ccccc4)CC3)c2c1C (stereo not shown) [Compound 611]	–	–	IC50 ([3]; read-out: A1 Yeast IC50, Table 6, Effect of N6-Substituent): > 10000 nM
CC(=O)NCCCNc1nc(-c2ccccc2)nc2[nH]c(C)c(C)c12 [Compound 1010]	675	9380	–
CC(=O)NCCNc1nc(-c2ccccc2)nc2[nH]c(COc3ccccc3)cc12 [Example 17, 4-(2-acetylaminoethyl)amino-6-phenoxymethyl-2-phenyl-7H-pyrrolo[2,3d]pyrimidine]	–	–	melting point: 196 to 197 °C
Cc1[nH]c2nc(-c3ccccc3)nc(NCCNC(=O)C3(N)CC3)c2c1C [Compound 1313]	–	–	Binding A2a, value given in % [1]: 65%; Binding A1, value printed in % [4]: 30%
Cc1[nH]c2nc(-c3ccccc3)nc(NC3CCC(NS(C)(=O)=O)CC3)c2c1C (stereo not shown) [Compound 604]	–	–	IC50 [3, 12]: > 10000 nM
Cc1[nH]c2nc(-c3ccc(F)cc3)nc(NC3CCC(O)CC3)c2c1C (stereo not shown) [Compound 707]	–	–	Ki [2]: 62.8 nM
Cc1[nH]c2nc(-c3ccccc3)nc(NCCO)c2c1C [Compound 1014]	385	2000	–
CC(=O)NC1CCC(Nc2nc(-c3ccccc3)nc3[nH]c(C)c(C)c23)CC1 (stereo not shown) [Compound 605]	–	–	Ki [2, 13]: > 10000 nM; IC50 [3, 12]: > 10000 nM
Cc1[nH]c2nc(-c3ccccc3)nc(NC3CCC(OC(=O)c4ccccc4)CC3)c2c1C (stereo not shown) [Compound 606]	–	–	IC50 [3]: > 10000 nM
Cc1[nH]c2nc(-c3ccccc3)nc(N[C@@H]3CCC[C@H]3O)c2c1C [Compound 614]	–	–	Ki [2, 13]: 32.1 nM
CCC(=O)NCCNc1nc(-c2ccccc2)nc2[nH]c(C)c(C)c12 [Compound 1003]	26.7	196	–
CC(=O)NC(C)CNc1nc(-c2ccccc2)nc2[nH]c(C)c(C)c12 (stereo not shown) [Compound 1104]	–	–	IC50 ([3]; A1 Yeast IC50 (nM), Table 11, Effect of N6-Substituent): 58.7 nM
Cc1[nH]c2nc(-c3ccccc3)nc(NCCNC(=O)C3CC3)c2c1C [Compound 1004]	32.8	546	–
Cc1[nH]c2nc(-c3ccccc3)nc(NCCNC(=O)C(C)C)c2c1C [Compound 1005]	147	3970	–
CC(Cc1ccccc1)Nc1ncnc2c1ncn2[C@@H]1O[C@H](CO)[C@@H](O)[C@H]1O (single isomer, unassigned; (-)) [PIA, (−)-N6-(2-phenylisopropyl)-adenosine]	–	–	reported affinity [5]: approximately 50 nM
O=c1nc2[nH]c3ccccc3nc-2c(=O)[nH]1 [Alloxazine]	–	–	IC50 [6]: 1070 nM; IC50 [7]: 8.22 µM
CCC(=O)NCCCNc1nc(-c2ccccc2)nc2[nH]c(C)c(C)c12 [Compound 1013]	270	3010	–
CC(=O)C(=O)NCCNc1nc(-c2ccccc2)nc2[nH]c(C)c(C)c12 [Compound 1006]	152	2920	–
Cc1[nH]c2nc(-c3ccccc3)nc(NCCNS(C)(=O)=O)c2c1C [Compound 1007]	692	–	–
Cc1[nH]c2nc(-c3ccccc3)nc(NCCNC=O)c2c1C [Compound 1001]	54.4	1870	–
Cc1[nH]c2nc(-c3ccccc3)nc(NCCCCO)c2c1C [Compound 1016]	176	5050	–
Cc1[nH]c2nc(-c3ccccc3)nc(NCCNC(=O)CCC(=O)O)c2c1C [Compound 1008]	93.1	3220	–
CC(=O)NCCCCNc1nc(-c2ccccc2)nc2[nH]c(C)c(C)c12 [Compound 1311]	–	–	Ki [8]: 736 nM; Ki [9]: 5.3 nM
Cc1[nH]c2nc(-c3ccccc3)nc(NCCNC(=O)CCN)c2c1C [Compound 1009]	475	–	–
